“And” between values parts separate entries of the source, which are not always exact repeats. Identical values can stand only once. Inconclusive results and toxic doses are left out. How the source made its calls: active means survival T/C of 150% or more; inactive means T/C below 125% in these data.
System: P388 leukemia ip, CD2F1 mice, survival T/C
Experiment: NCI In Vivo Anticancer Drug Screen. Data for tumor model P388 Leukemia (intraperitoneal) in CD2F1 (CDF1) mice
Details: endpoint: median survival time, higher = longer survival
Outline: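 Mice carrying the transplanted tumor received test compound or vehicle. Survival was recorded in each group, and the value is the treated-group measurement divided by that of the vehicle-treated control group.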

[1] = dose: 100.0 mg/kg/injection, schedule: Q01DX005 (ip), vehicle: saline with Tween-80
[2] = dose: 200.0 mg/kg/injection, schedule: Q01DX005 (ip), vehicle: saline with Tween-80
[3] = dose: 60.0 mg/kg/injection, schedule: Q01DX005 (ip), vehicle: saline with Tween-80
[4] = dose: 240.0 mg/kg/injection, schedule: Q01DX005 (ip), vehicle: saline with Tween-80
[5] = dose: 100.0 mg/kg/injection, schedule: Q01DX001 (ip), vehicle: saline with Tween-80
[6] = dose: 50.0 mg/kg/injection, schedule: Q01DX005 (ip), vehicle: saline with Tween-80
[7] = dose: 12.5 mg/kg/injection, schedule: Q01DX009 (ip), vehicle: saline
[8] = dose: 25.0 mg/kg/injection, schedule: Q01DX009 (ip), vehicle: saline
[9] = dose: 50.0 mg/kg/injection, schedule: Q01DX009 (ip), vehicle: saline with Tween-80
[10] = dose: 100.0 mg/kg/injection, schedule: Q01DX009 (ip), vehicle: saline with Tween-80
[11] = dose: 50.0 mg/kg/injection, schedule: Q01DX009 (ip), vehicle: Klucel (hydroxypropylcellulose) (HPC)
[12] = dose: 100.0 mg/kg/injection, schedule: Q01DX009 (ip), vehicle: Klucel (hydroxypropylcellulose) (HPC)
[13] = dose: 200.0 mg/kg/injection, schedule: Q01DX009 (ip), vehicle: Klucel (hydroxypropylcellulose) (HPC)
[14] = dose: 100.0 mg/kg/injection, schedule: Q01DX009 (ip), vehicle: saline
[15] = dose: 6.25 mg/kg/injection, schedule: Q01DX009 (ip), vehicle: water
[16] = dose: 12.5 mg/kg/injection, schedule: Q01DX009 (ip), vehicle: water
[17] = dose: 25.0 mg/kg/injection, schedule: Q01DX009 (ip), vehicle: water
[18] = dose: 50.0 mg/kg/injection, schedule: Q01DX009 (ip), vehicle: water
[19] = dose: 100.0 mg/kg/injection, schedule: Q01DX009 (ip), vehicle: water
[20] = dose: 50.0 mg/kg/injection, schedule: Q01DX009 (ip), vehicle: saline
[21] = dose: 12.5 mg/kg/injection, schedule: Q01DX009 (ip), vehicle: saline with Tween-80
[22] = dose: 25.0 mg/kg/injection, schedule: Q01DX009 (ip), vehicle: saline with Tween-80
[23] = dose: 60.0 mg/kg/injection, schedule: Q01DX005 (ip), vehicle: Klucel (hydroxypropylcellulose) (HPC)
[24] = dose: 120.0 mg/kg/injection, schedule: Q01DX005 (ip), vehicle: Klucel (hydroxypropylcellulose) (HPC)
[25] = dose: 240.0 mg/kg/injection, schedule: Q01DX005 (ip), vehicle: Klucel (hydroxypropylcellulose) (HPC)

Measured: T/C

O=[N+]([O-])c1ccccc1N=Nc1c(-c2ccccc2)nn(C(=S)N2CCOCC2)c1-c1ccccc1
inactive: dose: 1.5 mg/kg/injection, schedule: Q01DX005 (ip), vehicle: saline with Tween-80 102 % of control | dose: 3.0 mg/kg/injection, schedule: Q01DX005 (ip), vehicle: saline with Tween-80 96 % of control | dose: 6.0 mg/kg/injection, schedule: Q01DX005 (ip), vehicle: saline with Tween-80 87 % of control | dose: 6.25 mg/kg/injection, schedule: Q01DX005 (ip), vehicle: saline with Tween-80 92 % of control | [1] 86 % of control | [2] 95 % of control

Nc1cc(Cl)ccc1C(=O)c1ccccc1Cl
inactive: [3] 102 % of control | dose: 120.0 mg/kg/injection, schedule: Q01DX005 (ip), vehicle: saline with Tween-80 100 % of control | [4] 93 % of control

O=C(NC(=S)c1ccco1)NS(=O)(=O)c1ccc(Cl)cc1
inactive: dose: 25.0 mg/kg/injection, schedule: Q01DX001 (ip), vehicle: saline with Tween-80 100 % of control | dose: 50.0 mg/kg/injection, schedule: Q01DX001 (ip), vehicle: saline with Tween-80 95 % of control | [5] 96 % of control

C=C[C@@H]1C[C@@]2(C)O[C@@H]([C@@H](OCc3ccccc3)[C@@H]1OC)[C@@H](C)O2
inactive: [5] 96 % of control | dose: 200.0 mg/kg/injection, schedule: Q01DX001 (ip), vehicle: saline with Tween-80 104 % of control | dose: 400.0 mg/kg/injection, schedule: Q01DX001 (ip), vehicle: saline with Tween-80 104 % of control

c1ccc(C(=C2CCCCC2)c2ccccc2)cc1
inactive: [6] 100 % of control | [1] 100 % of control | [2] 98 % of control

Clc1ccc(C2(c3ccncc3)OCCO2)cc1
inactive: dose: 75.0 mg/kg/injection, schedule: Q01DX001 (ip), vehicle: saline 109 % of control | dose: 150.0 mg/kg/injection, schedule: Q01DX001 (ip), vehicle: saline 104 % of control | dose: 300.0 mg/kg/injection, schedule: Q01DX001 (ip), vehicle: saline 90 % of control

COc1ccc(Br)cc1-c1cc2cccc[n+]2o1
inactive: [7] 101 % of control | [8] 109 % of control

Cc1ccc(NC(=O)Oc2ccc(Br)cc2Br)c([N+](=O)[O-])c1
inactive: [9] 115 % of control | dose: 50.0 mg/kg/injection, schedule: Q04DX003 (ip), vehicle: saline with Tween-80 115 % of control | [10] 115 % of control | dose: 100.0 mg/kg/injection, schedule: Q04DX003 (ip), vehicle: saline with Tween-80 96 % of control | dose: 200.0 mg/kg/injection, schedule: Q04DX003 (ip), vehicle: saline with Tween-80 99 % of control | dose: 400.0 mg/kg/injection, schedule: Q04DX003 (ip), vehicle: saline with Tween-80 115 % of control

CCCCCCCCCCCCCOCC(=O)O
inactive: [11] 100 % of control | [12] 95 % of control | [13] 102 % of control

CCCCCCCCCCCCCCCCS(=O)(=O)c1ccc(S(=O)(=O)N/N=c2/sc3ccccc3n2C)cc1C(=O)O
inactive: dose: 6.25 mg/kg/injection, schedule: Q01DX009 (ip), vehicle: saline 103 % of control | [7] 97 % of control | [8] 94 % of control | [14] 88 % of control

N#CC1C(=O)NC(=O)C(C#N)C1c1ccncc1 (configuration not stated)
inactive: [11] 103 % of control | [12] 104 % of control | [13] 103 % of control

COc1cc2c(cc1OC)C(N)CCC2 (configuration not stated)
inactive: [15] 104 % of control | [16] 96 % of control | [17] 99 % of control | [18] 96 % of control | [19] 101 % of control

C[C@@]1(O)CC[C@@]23OC(=O)CC2C[C@@H]1O3 (some centres not stated)
inactive: dose: 100.0 mg/kg/injection, schedule: Q01DX001 (ip), vehicle: saline 102 % of control | dose: 200.0 mg/kg/injection, schedule: Q01DX001 (ip), vehicle: saline 98 % of control | dose: 400.0 mg/kg/injection, schedule: Q01DX001 (ip), vehicle: saline 104 % of control

CCC1(O)CC2C3C(C(=O)OC)=C4Nc5ccccc5C45CCN(C31)C25 (configuration not stated)
inactive: dose: 1.0 mg/kg/injection, schedule: Q01DX001 (ip), vehicle: water 100 % of control | dose: 2.0 mg/kg/injection, schedule: Q01DX001 (ip), vehicle: water 100 % of control | dose: 4.0 mg/kg/injection, schedule: Q01DX001 (ip), vehicle: water 101 % of control | dose: 8.0 mg/kg/injection, schedule: Q01DX001 (ip), vehicle: water 92 % of control | dose: 16.0 mg/kg/injection, schedule: Q01DX001 (ip), vehicle: water 95 % of control | dose: 32.0 mg/kg/injection, schedule: Q01DX001 (ip), vehicle: water 99 % of control

CN(C)CCCNC(=O)/C=C\C(=O)O
inactive: [7] 107 % of control | [8] 100 % of control | [20] 109 % of control and 93 % of control | [14] 94 % of control | dose: 200.0 mg/kg/injection, schedule: Q01DX009 (ip), vehicle: saline 94 % of control | dose: 400.0 mg/kg/injection, schedule: Q01DX009 (ip), vehicle: saline 97 % of control

CN(C)c1ccc2nc3ccc(=O)cc-3sc2c1
inactive: [21] 100 % of control | [22] 108 % of control | [9] 108 % of control | [10] 120 % of control and 122 % of control

Cc1ccnc(N=C2N=C(Nc3cc(C)ccn3)c3ccccc32)c1
inactive: dose: 6.25 mg/kg/injection, schedule: Q01DX009 (ip), vehicle: saline with Tween-80 93 % of control | [21] 88 % of control | [22] 99 % of control | [10] 91 % of control | dose: 200.0 mg/kg/injection, schedule: Q01DX009 (ip), vehicle: saline with Tween-80 90 % of control

COc1ccc(NC(=O)CCC2=CC(=O)CC(c3ccccc3)O2)cc1 (configuration not stated)
inactive: [3] 105 % of control | dose: 124.0 mg/kg/injection, schedule: Q01DX005 (ip), vehicle: saline with Tween-80 104 % of control | [4] 104 % of control

CCN(CC)CCOC(=O)c1ccc(NC(=O)Nc2ccc(C(=O)OCCN(CC)CC)cc2)cc1
inactive: [8] 102 % of control | [20] 107 % of control | [14] 118 % of control

O=c1cc[nH]c2c1ccc1[nH]ccc(=O)c12
inactive: [23] 108 % of control | [24] 99 % of control | [25] 99 % of control

NC(CSCc1ccccc1)P(=O)(O)O (configuration not stated)
inactive: [23] 105 % of control | [24] 98 % of control | [25] 91 % of control

CC1=NN(c2ccccc2)C(=O)C1=Nc1c(C)[nH]n(-c2ccccc2)c1=O
inactive: dose: 15.0 mg/kg/injection, schedule: Q01DX009 (ip), vehicle: saline with Tween-80 103 % of control | dose: 30.0 mg/kg/injection, schedule: Q01DX009 (ip), vehicle: saline with Tween-80 101 % of control | [6] 114 % of control and 96 % of control | dose: 60.0 mg/kg/injection, schedule: Q01DX009 (ip), vehicle: saline with Tween-80 105 % of control | [1] 104 % of control and 102 % of control | [2] 98 % of control and 110 % of control

CC1(C)CC(OC(=S)S)CC(C)(C)N1O
inactive: dose: 100.0 mg/kg/injection, schedule: Q04DX002 (ip), vehicle: saline 100 % of control | dose: 200.0 mg/kg/injection, schedule: Q04DX002 (ip), vehicle: saline 98 % of control | dose: 400.0 mg/kg/injection, schedule: Q04DX002 (ip), vehicle: saline 100 % of control

CN(C)c1ccc(C(O)Cc2ccc3ccccc3n2)cc1 (configuration not stated)
inactive: [11] 113 % of control | [12] 92 % of control | [13] 92 % of control

OCc1ccn2c1CCC2
inactive: [15] 107 % of control | [16] 109 % of control | [17] 110 % of control | [18] 115 % of control | [19] 109 % of control

Source: PubChem BioAssay AID330 (DTP/NCI, 2004)
